EC50 data for one compound are collected here from patent US12304899B2, “Factor XI activation inhibitors” (Merck Sharp & Dohme LLC, priority 2019, dated 2025).

For the assay, the target named is T1, Human coagulation factor (F)XI (Homo sapiens, UniProt P03951).
T1 construct: purchased Haematologic Technologies Inc. (FXI); Enzyme Research Laboratories (FXIIa) HCXI-150 (FXI); HFXIIa (FXIIa)
The assay is described as follows: Inhibition of FXIIa mediated activation of FXI (activation of human Factor XI to XIa by human Factor α-XIIa). Type of assay: biochemical. To be noted: human FXI pre-incubated with compound 30 min at 22° C., activation by human FXIIa 60 min, z-GPR-AFC substrate fluorescence, 4 parameter logistic fit; read-out: Inhibition of FXIIa meditated activation of FXI. A digest of the protocol:
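Human FXI (46 nM stock) preincubated 30 min at 22 °C with compound (10-point, 3.333-fold dilutions), then activated by human α-FXIIa (30 nM stock) for 60 min in HEPES/NaCl/CaCl2/PEG buffer, pH 7.4. After quench with a selective FXIIa inhibitor, FXIa generation read by z-GPR-AFC cleavage (60 min, fluorescence 405/510 nm); EC50 from 4-parameter logistic fit.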

T1 sequence (P03951 19-625): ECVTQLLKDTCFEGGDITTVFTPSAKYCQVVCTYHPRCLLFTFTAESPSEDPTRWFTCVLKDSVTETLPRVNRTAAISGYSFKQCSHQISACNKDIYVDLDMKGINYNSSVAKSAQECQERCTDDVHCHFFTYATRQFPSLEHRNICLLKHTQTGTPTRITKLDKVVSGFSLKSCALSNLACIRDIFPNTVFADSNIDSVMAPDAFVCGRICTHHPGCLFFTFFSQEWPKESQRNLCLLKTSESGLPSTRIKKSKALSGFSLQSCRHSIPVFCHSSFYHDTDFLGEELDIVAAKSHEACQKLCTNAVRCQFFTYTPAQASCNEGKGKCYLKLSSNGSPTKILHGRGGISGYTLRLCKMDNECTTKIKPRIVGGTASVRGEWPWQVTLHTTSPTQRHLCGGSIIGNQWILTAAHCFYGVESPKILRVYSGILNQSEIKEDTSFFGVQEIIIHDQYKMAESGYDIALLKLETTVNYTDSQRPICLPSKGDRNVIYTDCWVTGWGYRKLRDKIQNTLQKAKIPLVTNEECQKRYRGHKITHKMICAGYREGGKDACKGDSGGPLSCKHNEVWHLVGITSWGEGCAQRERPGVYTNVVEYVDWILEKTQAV

`N#CC1(n2cccn2)CCN(C(=O)c2cc(C(=O)N3CCCCC3)c3cc(OCc4ccc5snnc5c4)ccc3n2)CC1` [Example 76, 1-(6-(benzo[d][1,2,3]thiadiazol-5-ylmethoxy)-4-(piperidine-1-carbonyl)quinoline-2-carbonyl)-4-(1H-pyrazol-1-yl)piperidine-4-carbonitrile]: the EC50 amounted to 10.2 nM.
